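Where inhibition never reached the appropriate level, the endpoint shown equals the highest concentration tested. Otherwise, values were interpolated linearly from a five-concentration, 48-hour dose response in 96-well plates. GI50 = concentration required for 50% inhibition of growth. The concentration for full growth arrest is given as TGI.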
Experiments:
Assay in all cases: NCI-60 cell line screen, 48 h
TK-10 renal = test system: TK-10 renal
UO-31 renal = test system: UO-31 renal
NCI/ADR-RES ovarian = test system: NCI/ADR-RES ovarian
MOLT-4 leukemia = test system: MOLT-4 leukemia
MDA-MB-435 = test system: MDA-MB-435
SF-268 CNS = test system: SF-268 CNS
RXF 393 renal = test system: RXF 393 renal
HOP-92 NSCLC = test system: HOP-92 NSCLC
MCF7 breast = test system: MCF7 breast
SK-MEL-2 melanoma = test system: SK-MEL-2 melanoma
SK-MEL-5 melanoma = test system: SK-MEL-5 melanoma
COLO 205 colon = test system: COLO 205 colon
HS 578T breast = test system: HS 578T breast
A498 renal = test system: A498 renal
CAKI-1 renal = test system: CAKI-1 renal
IGROV1 ovarian = test system: IGROV1 ovarian
SNB-19 CNS = test system: SNB-19 CNS
NCI-H522 lung = test system: NCI-H522 lung
NCI-H460 lung = test system: NCI-H460 lung
MALME-3M melanoma = test system: MALME-3M melanoma
A549 NSCLC = test system: A549 NSCLC
OVCAR-4 ovarian = test system: OVCAR-4 ovarian
OVCAR-8 ovarian = test system: OVCAR-8 ovarian
HOP-62 NSCLC = test system: HOP-62 NSCLC
K-562 leukemia = test system: K-562 leukemia
OVCAR-3 ovarian = test system: OVCAR-3 ovarian
KM12 colon = test system: KM12 colon
SW-620 colon = test system: SW-620 colon
NCI-H23 lung = test system: NCI-H23 lung
SR leukemia = test system: SR leukemia
SK-MEL-28 melanoma = test system: SK-MEL-28 melanoma
M14 melanoma = test system: M14 melanoma
SK-OV-3 ovarian = test system: SK-OV-3 ovarian
ACHN renal = test system: ACHN renal
HL-60(TB) leukemia = test system: HL-60(TB) leukemia
CCRF-CEM leukemia = test system: CCRF-CEM leukemia
UACC-257 melanoma = test system: UACC-257 melanoma
HCT-15 colon = test system: HCT-15 colon
SF-295 CNS = test system: SF-295 CNS
HCC-2998 colon = test system: HCC-2998 colon
BT-549 breast = test system: BT-549 breast
RPMI-8226 leukemia = test system: RPMI-8226 leukemia
HT29 colon = test system: HT29 colon
OVCAR-5 ovarian = test system: OVCAR-5 ovarian
U251 CNS = test system: U251 CNS
NCI-H226 lung = test system: NCI-H226 lung
EKVX NSCLC = test system: EKVX NSCLC
SNB-75 CNS = test system: SNB-75 CNS
SF-539 CNS = test system: SF-539 CNS
PC-3 prostate = test system: PC-3 prostate
UACC-62 melanoma = test system: UACC-62 melanoma

For CC(=O)OC1C(C)OC(Oc2c(C)c3c4c(c2O)[C@@H](C)CC[C@@H]4[C@@H](C)C[C@H]3C=C(C)C)C(O)C1O (stereo partly specified), the GI50 (TK-10 renal) was 1.79 µM, the TGI (TK-10 renal) was 3.67 µM and the GI50 (UO-31 renal) was 22.6 µM. For the same compound, the TGI (UO-31 renal) was greater than 100 µM, the GI50 (NCI/ADR-RES ovarian) was 2.96 µM and the TGI (NCI/ADR-RES ovarian) was 9.13 µM. For the same compound, the GI50 (MOLT-4 leukemia) was 2.23 µM, the TGI (MOLT-4 leukemia) was greater than 100 µM and the GI50 (MDA-MB-435) was 2.13 µM. It also gave a TGI (MDA-MB-435) of 4.49 µM, a GI50 (SF-268 CNS) of 16 µM and a TGI (SF-268 CNS) of 55.3 µM. The GI50 (RXF 393 renal) was 4.11 µM, the TGI (RXF 393 renal) was 20.9 µM and the GI50 (HOP-92 NSCLC) was 3.73 µM. The TGI (HOP-92 NSCLC) was 9.56 µM, the GI50 (MCF7 breast) was 5.81 µM and the TGI (MCF7 breast) was greater than 100 µM. The GI50 (SK-MEL-2 melanoma) was greater than 100 µM, the TGI (SK-MEL-2 melanoma) was greater than 100 µM and the GI50 (SK-MEL-5 melanoma) was 2.49 µM. The TGI (SK-MEL-5 melanoma) was 5.39 µM, the GI50 (COLO 205 colon) was 3.98 µM and the TGI (COLO 205 colon) was greater than 100 µM. For the same compound, the GI50 (HS 578T breast) was 2.43 µM, the TGI (HS 578T breast) was 5.51 µM and the GI50 (A498 renal) was 4.43 µM. For the same compound, the TGI (A498 renal) was 14.7 µM, the GI50 (CAKI-1 renal) was 1.87 µM and the TGI (CAKI-1 renal) was 3.74 µM. For the same compound, the GI50 (IGROV1 ovarian) was 46.2 µM, the TGI (IGROV1 ovarian) was greater than 100 µM and the GI50 (SNB-19 CNS) was 3.41 µM. It also gave a TGI (SNB-19 CNS) greater than 100 µM, a GI50 (NCI-H522 lung) of 49.7 µM and a TGI (NCI-H522 lung) greater than 100 µM. For the same compound, the GI50 (NCI-H460 lung) was 3.57 µM, the TGI (NCI-H460 lung) was greater than 100 µM and the GI50 (MALME-3M melanoma) was 1.82 µM. The TGI (MALME-3M melanoma) was 4.19 µM, the GI50 (A549 NSCLC) was 10 µM and the TGI (A549 NSCLC) was greater than 100 µM. The GI50 (OVCAR-4 ovarian) was 3.2 µM, the TGI (OVCAR-4 ovarian) was greater than 100 µM and the GI50 (OVCAR-8 ovarian) was 37.8 µM. The TGI (OVCAR-8 ovarian) was greater than 100 µM, the GI50 (HOP-62 NSCLC) was 2.26 µM and the TGI (HOP-62 NSCLC) was 5.3 µM. It also gave a GI50 (K-562 leukemia) of 2.24 µM, a TGI (K-562 leukemia) of 5.27 µM and a GI50 (OVCAR-3 ovarian) of 1.7 µM. It also gave a TGI (OVCAR-3 ovarian) of 3.33 µM, a GI50 (KM12 colon) of 1.87 µM and a TGI (KM12 colon) of 3.66 µM.

O=C1OC(c2ccccc2)=N/C1=C\c1cccnc1 was tested, and the TGI (SW-620 colon) was greater than 100 µM, the TGI (TK-10 renal) was greater than 100 µM and the TGI (NCI-H23 lung) was greater than 100 µM. The TGI (UO-31 renal) was greater than 100 µM, the TGI (SR leukemia) was greater than 100 µM and the TGI (NCI/ADR-RES ovarian) was greater than 100 µM. It also gave a TGI (SK-MEL-28 melanoma) greater than 100 µM, a TGI (MOLT-4 leukemia) greater than 100 µM and a TGI (MDA-MB-435) greater than 100 µM. For the same compound, the TGI (M14 melanoma) was greater than 100 µM, the TGI (SK-OV-3 ovarian) was greater than 100 µM and the TGI (SF-268 CNS) was greater than 100 µM. For the same compound, the TGI (ACHN renal) was greater than 100 µM, the TGI (HL-60(TB) leukemia) was greater than 100 µM and the TGI (CCRF-CEM leukemia) was greater than 100 µM. The TGI (UACC-257 melanoma) was greater than 100 µM, the TGI (RXF 393 renal) was greater than 100 µM and the TGI (HCT-15 colon) was greater than 100 µM. For the same compound, the TGI (SF-295 CNS) was greater than 100 µM, the TGI (HCC-2998 colon) was greater than 100 µM and the TGI (HOP-92 NSCLC) was greater than 100 µM. For the same compound, the TGI (BT-549 breast) was greater than 100 µM, the TGI (MCF7 breast) was greater than 100 µM and the TGI (SK-MEL-2 melanoma) was greater than 100 µM. It also gave a TGI (SK-MEL-5 melanoma) greater than 100 µM, a TGI (RPMI-8226 leukemia) greater than 100 µM and a TGI (HS 578T breast) greater than 100 µM. For the same compound, the TGI (HT29 colon) was greater than 100 µM, the TGI (OVCAR-5 ovarian) was greater than 100 µM and the TGI (IGROV1 ovarian) was greater than 100 µM. The TGI (SNB-19 CNS) was greater than 100 µM, the TGI (NCI-H522 lung) was greater than 100 µM and the TGI (NCI-H460 lung) was greater than 100 µM. The TGI (A549 NSCLC) was greater than 100 µM, the TGI (OVCAR-4 ovarian) was greater than 100 µM and the TGI (U251 CNS) was greater than 100 µM. For the same compound, the TGI (OVCAR-8 ovarian) was greater than 100 µM, the TGI (HOP-62 NSCLC) was greater than 100 µM and the TGI (K-562 leukemia) was greater than 100 µM. It also gave a TGI (NCI-H226 lung) greater than 100 µM, a TGI (OVCAR-3 ovarian) greater than 100 µM and a TGI (EKVX NSCLC) greater than 100 µM. It also gave a TGI (SNB-75 CNS) greater than 100 µM, a TGI (SF-539 CNS) greater than 100 µM and a TGI (PC-3 prostate) greater than 100 µM. The TGI (KM12 colon) was greater than 100 µM and the TGI (UACC-62 melanoma) was greater than 100 µM.

From PubChem BioAssay (NCI)
